# In PMC11818416, “Discovery of TRPV4-Targeting Small Molecules with Anti-Influenza Effects Through Machine Learning and Experimental Validation” (International Journal of Molecular Sciences, 2025):
# Where a name gives a salt, the structure may show the parent alone.
# Columns and labels:
# in vitro = details: dog
# Experimental: (§1) MDCK cells were inoculated in 96-well plates at 37 °C and 5% carbon dioxide for 12 h. The cell supernatant was discarded when the cell density reached 60–70%, and then different concentrations of drugs (0.1, 1, 10, 100 μM) were inoculated in the cell plates, moreover 3 repeat holes were set for each concentration gradient. After 48 h, cell viability was measured using cell counting kit-8 (Beyotime, C0039, CCK-8) depending on factory instructions. The absorbance at 450 nm for each pore was measured using an enzyme-linked immunosorbent plate reader, and half inhibitory concentration (CC50) value of cell viability were calculated by a nonlinear regression curve fitting analysis (Prism 8) of cell viability to the log10 conversion concentration value.
# [1] = CCK-8 cytotoxicity test on MDCK cells; details: dog
# Experimental: as §1
# H1N1-UI182 = assay: Mice infected with lethal H1N1-UI182 virus: body weight, survival, lung index, lung viral titer, pathology, viral proteins; assay type: in vivo, BALB/c mice; details: for rate of weight loss in virus-infected mice: 15-drug round, monitored 14 days (Figure 4A,B); for viral titers in the lung: Supplementary Figures S1C and S2C, comparable to the positive drugs; for survival rate of infected mice: 15-drug round (Figure 4C,D); for expression levels of viral proteins (NP, HA, M1) in lungs, WB: 15-drug round (Figure 4K,L); for lung injury (pathology): compared to other treatment groups and virus group, glecaprevir 30 mg/kg, everolimus 5 mg/kg (Figures S1, S2); for protection rate (survival of influenza-infected mice): H1N1-UI182 5 × LD50, BALB/c mice; for rate of weight loss at different concentrations / survival at different concentrations / dose dependence of the inhibitory effect on the virus (lung index, pulmonary viral load, pathological injury): oral
# [2] = tested on: NF-κB signaling pathway and inflammatory cytokines; assay: Inflammatory cytokine expression after H1N1-UI182 infection by WB and RT-qPCR; assay type: in vivo, mouse; details: after H1N1-UI182 infection (Figure 6A-C)
# H1N1-UI182 in 293T cells = assay type: cell-based, human
# [3] = glecaprevir 10, 20, 40 mg/kg/day, everolimus 1, 5, 25 mg/kg/day
# [4] = glecaprevir 10, 20, 40 mg/kg/day, everolimus 1, 5, 25 mg/kg/day, 5 dpi
smiles,measurement,setting,value
CCC[C@H](NC(=O)[C@@H]1[C@H]2CCC[C@H]2CN1C(=O)[C@@H](NC(=O)[C@@H](NC(=O)c1cnccn1)C1CCCCC1)C(C)(C)C)C(=O)C(=O)NC1CC1 [Telaprevir],CC50 at 48 h,in vitro,> 100 µM
C[C@@H]1O[C@@H](OC[C@H]2O[C@@H](Oc3c(-c4ccc(OCCO)c(OCCO)c4)oc4cc(OCCO)cc(O)c4c3=O)[C@H](O)[C@@H](O)[C@@H]2O)[C@H](O)[C@H](O)[C@H]1O [Troxerutin],CC50 at 48 h,[1]; MDCK cells,< 50 µM
CSCCNc1nc(SCCC(F)(F)F)nc2c1ncn2[C@@H]1O[C@H](COP(=O)(O)OP(=O)(O)C(Cl)(Cl)P(=O)(O)O)[C@@H](O)[C@H]1O [Cangrelor],rate of weight loss in virus-infected mice,H1N1-UI182,significantly slowed the rate of weight loss
same,CC50 at 48 h,in vitro,> 100 µM
CC(C)(C)[C@@H]1NC(=O)O[C@@H]2CCC[C@H]2OC/C=C/C(F)(F)c2nc3ccccc3nc2O[C@@H]2C[C@@H](C(=O)N[C@]3(C(=O)NS(=O)(=O)C4(C)CC4)C[C@H]3C(F)F)N(C2)C1=O [Glecaprevir],viral titers in the lung,H1N1-UI182; 5 dpi,significantly reduced viral titers
same,survival rate of infected mice,H1N1-UI182,significantly improved the survival rate
same,"expression levels of viral proteins (NP, HA, M1) in lungs, WB",H1N1-UI182,attenuated obviously
same,rate of weight loss in virus-infected mice,H1N1-UI182,significantly slowed the rate of weight loss
same,lung injury (pathology),H1N1-UI182; 5 days after infection,noticeable signs of lung improvement
same,protection rate (survival of influenza-infected mice),H1N1-UI182,80%
same,"expression of viral protein in mouse lungs at higher doses, WB","H1N1-UI182; glecaprevir 10, 20, 40 mg/kg/day (Figure 5K)",did not effectively inhibit the expression of viral protein at higher doses
same,lung lesions at higher concentrations,"H1N1-UI182; glecaprevir 10, 20, 40 mg/kg/day, 5 dpi, H&E (Figure 5I)",higher concentrations did not alter the lung lesions
same,rate of weight loss at different concentrations,H1N1-UI182; [3],observably retarded the rate of weight loss
same,survival at different concentrations,H1N1-UI182; [3],improved survival in a concentration-dependent manner
same,"dose dependence of the inhibitory effect on the virus (lung index, pulmonary viral load, pathological injury)",H1N1-UI182; [4],did not display concentration-dependent characteristics
same,"expression levels of phosphorylated NF-κB, IL-6, IL-10, IFN-β, TNF-α (WB)",[2],decreased
same,CC50 at 48 h,in vitro,77.3 µM
Cc1cc2nc3c(=O)[nH]c(=O)nc-3n(C[C@H](O)[C@H](O)[C@H](O)COP(=O)(O)OP(=O)(O)OC[C@H]3O[C@@H](n4cnc5c(N)ncnc54)[C@H](O)[C@@H]3O)c2cc1C [FAD],CC50,MDCK cells,< 50 µM
CCCCC(=O)OCC(=O)[C@]1(O)Cc2c(O)c3c(c(O)c2[C@@H](O[C@H]2C[C@H](NC(=O)C(F)(F)F)[C@H](O)[C@H](C)O2)C1)C(=O)c1c(OC)cccc1C3=O [Valrubicin],CC50 at 48 h,[1]; MDCK cells,< 50 µM
COC(=O)N[C@H](C(=O)N1CCC[C@H]1C(=O)Nc1ccc([C@@H]2CC[C@@H](c3ccc(NC(=O)[C@@H]4CCCN4C(=O)[C@@H](NC(=O)OC)C(C)C)cc3)N2c2ccc(C(C)(C)C)cc2)cc1)C(C)C [Ombitasvir],CC50 at 48 h,[1],> 100 µM
CN[C@@H]1[C@@H](O)[C@@H](O[C@@H]2[C@@H](O)[C@H](O[C@H]3O[C@H](CN)[C@@H](O)[C@H](O)[C@H]3O)[C@@H](N)C[C@H]2NC(=O)[C@@H](O)CN)OC[C@]1(C)O [Isepamicin],CC50 at 48 h,[1]; MDCK cells,> 100 µM
CC(/C=C/C=C(\C)C(=O)O[C@@H]1O[C@H](CO[C@@H]2O[C@H](CO)[C@@H](O)[C@H](O)[C@H]2O)[C@@H](O)[C@H](O)[C@H]1O)=C\C=C\C=C(C)\C=C\C=C(/C)C(=O)O[C@@H]1O[C@H](CO[C@@H]2O[C@H](CO)[C@@H](O)[C@H](O)[C@H]2O)[C@@H](O)[C@H](O)[C@H]1O [Crocin],CC50 at 48 h,[1]; MDCK cells,> 100 µM
CO[C@H]1C[C@@H]2CC[C@@H](C)[C@@](O)(O2)C(=O)C(=O)N2CCCC[C@H]2C(=O)O[C@H]([C@H](C)C[C@@H]2CC[C@@H](OCCO)[C@H](OC)C2)CC(=O)[C@H](C)/C=C(\C)[C@@H](O)[C@@H](OC)C(=O)[C@H](C)C[C@H](C)/C=C/C=C/C=C/1C [Everolimus],viral titers in the lung,H1N1-UI182; 5 dpi,significantly reduced viral titers
same,survival rate of infected mice,H1N1-UI182,significantly improved the survival rate
same,"expression levels of viral proteins (NP, HA, M1) in lungs, WB",H1N1-UI182,attenuated obviously
same,rate of weight loss in virus-infected mice,H1N1-UI182,significantly slowed the rate of weight loss
same,viral load in the lungs,"H1N1-UI182; 5 days after infection, compared to the viral group (Figure 4G-J)",evidently lower
same,lung injury (pathology),H1N1-UI182; 5 days after infection,noticeable signs of lung improvement
same,protection rate (survival of influenza-infected mice),H1N1-UI182,100%
same,pulmonary viral load at different concentrations,"H1N1-UI182; everolimus 1, 5, 25 mg/kg/day, 5 dpi (Figure 5H)",decreased notably with the increase of drug concentration
same,rate of weight loss at different concentrations,H1N1-UI182; [3],observably retarded the rate of weight loss
same,survival at different concentrations,H1N1-UI182; [3],improved survival in a concentration-dependent manner
same,"dose dependence of the inhibitory effect on the virus (lung index, pulmonary viral load, pathological injury)",H1N1-UI182; [4],meaningfully dose-dependent
same,"expression levels of phosphorylated NF-κB, IL-6, IL-10, IFN-β, TNF-α (WB)",[2],decreased
same,CC50 at 48 h,in vitro,78.2 µM
same,expression level of NP protein in normal 293T cells (WB),H1N1-UI182 in 293T cells,higher in normal cells
same,expression of NP protein in TRPV4−/− 293T cells (WB),H1N1-UI182 in 293T cells,significantly decreased
"NC[C@@H]1O[C@H](O[C@H]2[C@@H](O)[C@H](O[C@@H]3[C@@H](O)[C@H](N)C[C@H](N)[C@H]3O[C@H]3O[C@H](CO)[C@@H](O)[C@H](O)[C@H]3N)O[C@@H]2CO)[C@H](N)[C@@H](O)[C@@H]1O [Paromomycin, Paromomycin sulfate]",CC50 at 48 h,[1]; MDCK cells,> 100 µM
NC[C@H]1O[C@H](O[C@H]2[C@H](O)[C@@H](O[C@H]3O[C@H](CO)[C@@H](O)[C@H](N)[C@H]3O)[C@H](N)C[C@@H]2N)[C@H](N)C[C@@H]1O [Tobramycin],CC50 at 48 h,[1]; MDCK cells,> 100 µM
C[C@H]1O[C@H](O[C@H]2[C@H](O)[C@@H](O)[C@@H](O[C@H]3[C@H](O)[C@@H](O)C(O)O[C@@H]3CO)O[C@@H]2CO)[C@H](O)[C@@H](O)[C@@H]1N[C@H]1C=C(CO)[C@@H](O)[C@H](O)[C@H]1O (stereo partly drawn) [Acarbose],rate of weight loss in virus-infected mice,H1N1-UI182,significantly slowed the rate of weight loss
same,CC50 at 48 h,[1]; MDCK cells,> 100 µM
CNCC(=O)OCc1cccnc1N(C)C(=O)OC(C)[n+]1cnn(C[C@](O)(c2cc(F)ccc2F)[C@@H](C)c2nc(-c3ccc(C#N)cc3)cs2)c1 (stereo partly drawn) [Isavuconazonium],CC50 at 48 h,[1]; MDCK cells,> 100 µM
